Source: a melting point compilation (Tetko et al.; mined from patent text by program, amines drawn as free bases though some values may be those of a salt)

SMILES	melting point
Cc1cc(OCCN(C)C)c(C(C)C)cc1OC(=O)CCCC(=O)O	109 to 110 °C
O=C(c1ccc(CNc2nc(-c3ccccc3)nc3ccccc23)cc1)N1CCN(c2ncc(Cc3ccccc3)cn2)CC1	216 to 217 °C
CC(=O)NCCSc1c(Cl)cc(N)c(C)c1N	111 °C
N#Cc1cnn(Cc2ccccc2)c1	61 to 63 °C
CC(C)N(C(=O)n1oc(=O)n(C)c1=O)c1ccc(Cl)cc1	121 to 123 °C
COC(=O)c1cc(N)c(Cl)c(S(=O)(=O)n2cccc2)c1	178 to 181 °C
COC(=O)C(C)(C)c1ccc(C(=O)CCCCl)cc1	175 to 181 °C
O=C(O)c1cccc(Oc2cccc(-c3nn(Cc4ccc(C(F)(F)P(=O)(O)O)c(Cl)c4)c(=Nc4ccc(Cl)c(Cl)c4)s3)c2)c1	212 to 215 °C
CCOc1cc(OCC)c2ccccc2c1O	83 to 84 °C
COc1ccc(C2=NN(SC(C)C)C(=O)C2(SC(C)C)SC(C)C)cc1	52 to 54 °C
CCN1CN=C2SCC(O)(c3ccc(Br)cc3)N2C1 (configuration not stated)	132 to 134 °C
CCOC(=O)c1cc2sc(N=CN(C)C)c(C#N)c2s1	168 °C
CC(=O)Nc1ccc(O)c(C)c1C	184 to 185 °C
CC(C)n1nc(C(Cl)C(=O)c2ccccc2)ccc1=O (configuration not stated)	86.5 to 87.5 °C
O=C(O)CN(CC(=O)O)CC(c1ccc([N+](=O)[O-])cc1)N(CC(=O)O)CC(=O)O (configuration not stated)	171 to 174 °C
CCc1c(OCc2ccccc2)nc(OCc2ccccc2)nc1C(C#N)c1cc(C)cc(C#N)c1 (configuration not stated)	139 to 141 °C
Nc1ccc(Cl)c(O)c1	115 to 117 °C
Cc1ccc2c(N)nc(-c3cccc4ccccc34)cc2c1	170 °C
COC(=O)CC[C@@H](NC(=O)[C@@H](NC(=O)OC(C)(C)C)[C@@H](C)OCc1ccccc1)C(N)=O	131 to 132 °C

SMILES	melting point
CCOCc1nc2c(N)nc(C)c(C)c2n1CCCCS(=O)(=O)N(C)C	158 to 160 °C
O=C(OCCCc1ccccc1)c1ccc2c(c1)C(Cl)(Cl)c1cc(C(=O)OCCCc3ccccc3)ccc1-2	91 to 92 °C
Cc1ccc(-c2ncccc2OC2SCC(O)C(O)C2O)o1 (configuration not stated)	191 °C
CCOC(=O)CCc1cn(-c2ccc(C(F)(F)F)cn2)nc1C	50 to 51 °C
CCCCCC1OCc2cc(C#N)ccc2O1 (configuration not stated)	40.5 to 41 °C
CC(=O)N1CCCC2(Cc3cc([N+](=O)[O-])ccc3O2)C1 (configuration not stated)	165 to 167 °C
Cn1cnc2ccnc(Cl)c21	62 to 65 °C
O=C(O)c1cc(Cl)cc(I)c1O	160 to 163 °C
O=C(O)C1(C(=O)O)CC2CCC2C1 (configuration not stated)	161 to 170 °C
O=C(O)Cc1csc(-c2ncccc2O)n1	175 to 176 °C
Cc1cc(O)c2c(c1O)C(=O)c1ccccc1C2=O	177 to 178 °C
COc1nc2ccc3c(c2o1)C(CCNC(C)=O)CC3 (configuration not stated)	126 to 128 °C
CC(=O)Oc1ccc2c(c1)C(C)c1cc(OC(C)=O)ccc1-2	139 to 140 °C
CC(C)(C(=O)O)C(c1ccc(OCc2ccc3ccccc3n2)cc1)c1ccc(OCc2ccc3ccccc3n2)cc1	124 to 127 °C
CC(=O)CC(=O)NC1CCCCCC1	52 °C
CC[C@@H](CO)Nc1nc(-c2ccc(Br)cc2)cs1	91 to 93 °C
CCOC(=O)c1ccc2nc(NC)[nH]c2c1	247 to 249 °C
O=C1CC2Cc3ccccc3C2N1 (configuration not stated)	150 to 153 °C
Oc1ccc2cnccc2c1	218 to 220 °C

SMILES	melting point
Cc1nc2ccccc2n1-c1ccc(C#N)cc1	166 to 168 °C
CCOC(=O)c1c(C)n(Cc2ccc3ccccc3n2)c2ccc(OCc3ccc4ccccc4n3)cc12	162 to 163 °C
COc1cccc(C(CCCCCCc2ccccc2)CNC(=O)Cc2c(Cl)cncc2Cl)c1 (configuration not stated)	97 to 98 °C
COc1ncccc1-c1ccc(OC2SCC(O)C(O)C2O)cn1 (configuration not stated)	127 °C
COc1c(CC#N)c2c(c3c1OC(C)(C)C3)C(c1cccc(C(=O)NC3CCCCNC3=O)c1)=NC(C)(C)C2 (configuration not stated)	130 to 132 °C
O=c1cc(-c2ccc(OCCOc3ccc(-c4cc(=O)c5c(O)cc(O)cc5o4)cc3)cc2)oc2cc(O)cc(O)c12	352 to 355 °C
CCOc1ccc([N+](=O)[O-])cc1OC	88 to 90 °C
NC(=O)C1(N2CCCCC2)CCN(Cc2ccccc2)CC1	150 to 160 °C
CC(=O)NNC(=O)NC1c2ccccc2Oc2ccccc21	226 to 228 °C
NCCc1ccc(OCc2ccccc2)c(NC(N)=O)c1	176 to 180 °C
Cc1cc(Br)nc2c1OCC(=O)N2	174 °C
NNC(=O)Cc1ccccc1S(N)(=O)=O	116 to 125 °C
O=C(NC1CCCCC1)NC1CCN(CCc2c[nH]c3ccccc23)CC1	204 °C
CNC(=O)c1ccc(C=CC(=O)NCC(=O)N(C)c2ccc(Cl)c(CO)c2Cl)cc1	207 to 211 °C
CC(C)(C)OC(=O)CCc1cc(C#N)nc(-c2nc(=O)c3ccccc3s2)c1	190 to 191 °C
CCc1nnc2ccc(-c3ccccc3)nn12	133 to 135 °C
CCC12CCC3C4CCCC=C4CCC3C1CCC2=O (configuration not stated)	101 to 102 °C
COC(=O)c1ccccc1Nc1cccc(C(C)N(O)C(C)=O)c1Cl (configuration not stated)	171 to 172 °C
CCCC(C)(c1ccc(F)cc1)c1cc(O)c2c3c(c(=O)oc2c1)CCC3 (configuration not stated)	133 to 135 °C

Next, values leading:

melting point	SMILES
160 °C	CC(C)(C)c1cc(C(=O)N2CCN(c3ccc([N+](=O)[O-])cc3)CC2)cc(C(C)(C)C)c1O
199 to 200 °C	O=c1[nH]c2cc(Cl)c(S(=O)CCN3CCC(Cc4ccc(F)cc4)CC3)cc2o1 (configuration not stated)
160 to 162 °C	COc1cc(OS(=O)(=O)c2ccc(N3CCN(C)C3=O)cc2)cc(OC)c1OC
187 to 188 °C	CSc1ccc(C=C2C(C)=C(CC(=O)O)c3cc(F)ccc32)cc1
69 to 71 °C	Fc1cccc(CC[C@H]2CN(Cc3ccccc3)CCN2Cc2ccccc2)c1
94 to 96 °C	O=C1C(=Cc2ccsc2)CCc2cc(OCCc3c[nH]cn3)ccc21
156 to 157 °C	Cc1ccc(C(=O)Nc2ccc(CN(C)C)c(C(F)(F)F)c2)cc1Br
55 to 56 °C	COc1ccc(C(=O)OC2CCN(Cc3ccccc3)CC2)cc1
112 to 114 °C	CC(C)(C)CCn1c(=O)c(=NNc2ccccc2)c(=O)n(-c2ccccc2F)c2ccccc21
89 to 90 °C	CCOc1nn(Cc2ccc(OCCc3ccc(CC)cn3)cc2)cc1CCC(=O)O
233 to 235 °C	CCC(O)c1ccc(Cl)c2nc3n(c12)CCCN3c1ccc(Cl)cc1Cl (configuration not stated)
205 to 206 °C	O=C(O)[C@@H]1CCCN1Cc1cc2cc3c(cc2c2cc(O)ccc12)OCO3
120 to 122 °C	CC(=O)NCC1CN(Cc2ccc(F)cc2)CCO1 (configuration not stated)
134 to 137 °C	CC(C)(C)c1cc(SC2CC(=O)N(c3ccccc3)C2=O)cc(C(C)(C)C)c1O (configuration not stated)
233 °C	O=C(Nc1cccc2c1C(=O)c1c-2n[nH]c1-c1ccc(N2CCC(N3CCCCC3)CC2)cc1)NN1CCOCC1
118 to 121 °C	CS(=O)(=O)c1ccc(-c2cnn(CC3CC3)c(=O)c2-c2ccc(F)cc2)cc1
193 to 194 °C	O=C(N1CCOCC1)N1Cc2c(-c3nc(C4CC4)cs3)ncn2-c2ccccc21
196 °C	CCCCc1nc(S(C)(=O)=O)c(C(=O)O)n1Cc1ccc(-c2ccccc2C(=O)O)cc1
142 to 145 °C	COCN(C(=O)Cc1ccc(Cl)cc1)C(c1cncnc1C(F)(F)F)C(C)C (configuration not stated)
208 to 209 °C	Cc1ccc(NC(=O)c2ccc(Br)cc2)cc1N1CCN(C)CC1
119 to 124 °C	O=C(Nc1ccc(N2CCNCC2)cc1)c1ccccc1-c1ccc(C(F)(F)F)cc1
180 to 182 °C	OC1CCC(n2cnc3cc(Cl)c(Cl)cc32)C1O (configuration not stated)
202 to 204 °C	Cc1[nH]cnc1CSCCNc1ncc(Cc2ccn(C)c(=O)c2)c(=O)[nH]1

melting point	SMILES
96 to 97 °C	CCOC(=O)C(C#N)(CCN1CCOCC1)c1ccc(C(F)(F)F)cc1 (configuration not stated)
101 to 102 °C	COc1ccccc1OCC(O)CCN1CCN(c2ccccc2)CC1 (configuration not stated)
206 °C	Cc1ccc(N2C(=O)N(CC(=O)O)C(=O)C23CCCCC3)cc1
110 °C	c1ccc2c(c1)OCCc1c-2n(CCCCCCN2CCCCC2)c2ccccc12
73 to 77 °C	O=C1c2cc(O)ccc2SCC1Cc1ccccc1 (configuration not stated)
52 to 55 °C	CCCCCCCC1=CC(=O)N(Cc2ccccc2)C1=CBr
171 to 173 °C	O=C(NN1CCCCC1)c1nc(-c2ccc(Cl)cc2Cl)c(-c2ccc(Br)cc2)s1
146 to 149 °C	O=C(NCC1(O)CCCCCC1)c1cc(-c2ccc(Cl)c(C(=O)O)n2)ccc1Cl
> 280 °C	O=C(O)Cn1c(=O)c(=O)[nH]c2cc([N+](=O)[O-])c(Cl)cc21
231 to 234 °C	CNC(=O)c1cc(Oc2ccc(NC(=O)Nc3ccc4c(cnn4C)c3)c(F)c2)ccn1
120 °C	COC(=O)c1ccc(OC)c(NC(=N)c2ccc(F)cc2F)c1
173 to 175 °C	O=C(O)COc1c(-c2cccc(Cl)c2)cc(C(=O)NCCCC2CCCC2)cc1-c1cccc(C(F)(F)F)c1
120 °C	N=c1sc2cc(OC(F)(F)F)ccc2n1CCS(=O)c1ncccn1 (configuration not stated)
212 °C	CC(C)C(=O)N[C@H]1CC[C@H](CCN2CCC(c3cccc4c3CCO4)CC2)CC1
210 to 212 °C	Cc1nc2c3c(ccn2c1C)C(O)CC(c1ccccc1)N3 (configuration not stated)
94 to 96 °C	Cc1ccc(S(=O)(=O)On2nnc3ccc(Cl)cc32)cc1
265 °C	O=C1NCc2cc(C(=O)c3ccccc3)ccc2N1
148 to 153 °C	Nc1cc(C=C2OC(=O)c3ccccc32)ccc1Cl
250 °C	CCOP(=O)(OCC)C1CCn2c(=O)c(=O)[nH]c3cc(C(F)(F)F)cc1c32 (configuration not stated)
146 to 149 °C	N=C(NC1CC1)NN1CCc2cc(Cl)ccc21
251 to 253 °C	CC1CN(c2c(F)c(N)c3c(=O)c(C(=O)O)cn(C4CC4)c3c2F)CCN1 (configuration not stated)
204 °C	CCOC(=O)N1CCC(NC2(c3ccccc3Cl)C(=O)Nc3ccc(Cl)cc32)CC1 (configuration not stated)
